These results are taken from ChEMBL document CHEMBL5325454, “Synthesis, anti-ferroptosis, anti-quorum sensing, antibacterial and DNA interaction studies of chromene-hydrazone derivatives” (Bioorg Med Chem, 2023).

As a reminder, the MIC is the lowest concentration found to suppress growth. As usually defined, the IC50 is the concentration needed to halve the response being measured.

Test [1] can be described thus: Inhibition of quorum sensing system in Vibrio harveyi BB120 assessed as reduction in luminescence incubated for 5 hrs under shaking condition by luminescence microplate reader analysis.
The subject of test [2] is HaCaT. The test is described as follows: Anti-ferroptotic activity against Erastin-induced ferroptosis in human HaCaT cells assessed as increase in cell viability at 5 uM preincubated with compound for 4 hrs followed by […] administration and measured after 24 hrs by MTT assay. It counts as functional, cell-based. Conditions: time 28.0 hrs.
For test [3], the system named is Vibrio harveyi. The experiment in a line: Antibacterial activity against Vibrio harveyi BB120 assessed as inhibition of bacterial growth measured at 24 hrs by broth microdilution assay. The format is functional. On the technique in general: In broth dilution the organism is exposed to a series of concentrations in liquid medium.
In test [4] the test system is DNA. The experiment in a line: Induction of Escherichia coli supercoiled pBR322 DNA cleavage in absence of Cu2+ ion incubated overnight by GelRed DNA gel staining based electrophoresis analysis. The format is nucleic-acid assay.
Test [5] has as its system DNA. The test is described as follows: Induction of Escherichia coli supercoiled pBR322 DNA cleavage assessed as cleavage of DNA into open-circular forms in presence of Copper(II)acetate incubated overnight by GelRed DNA gel staining based electrophoresis analysis. The format is nucleic-acid assay.
In test [6] the test system is HaCaT. The test is described as follows: Anti-ferroptotic activity against Erastin-induced ferroptosis in human HaCaT cells assessed as increase in cell viability at 5 uM preincubated with compound for 4 hrs followed by […] administration and measured after 24 hrs by MTT assay relative to control. It counts as functional. Conditions: time 28 hrs. In general terms: Tetrazolium dyes change colour on reduction, which living cells bring about.

In test [7] the test system is Calf thymus DNA. The test is described as follows: Binding affinity to calf thymus DNA assessed as apparent binding constant upto 30 uM by UV-Vis spectroscopic analysis. The format is nucleic-acid assay. The conditions noted are these: Bos taurus.
The subject of test [8] is Calf thymus DNA. The test is described as follows: Binding affinity to calf thymus DNA assessed as hyperchromicity by UV-Vis spectroscopic analysis. The format is nucleic-acid assay. Conditions: Bos taurus; dose <= 30.0 µM.
In another test the test system is Escherichia coli. The test is described as follows: Antibacterial activity against Escherichia coli assessed as inhibition of bacterial growth. The format is functional, organism-based.
The subject of test [9] is Staphylococcus aureus. The test is described as follows: Antibacterial activity against methicillin-resistant Staphylococcus aureus MW2 assessed as inhibition of bacterial growth measured at 24 hrs by broth microdilution assay. The format is functional.
Test [10] concerns Staphylococcus aureus. The experiment in a line: Antibacterial activity against methicillin-resistant Staphylococcus aureus MW2 assessed as zone of inhibition incubated overnight by disc diffusion assay. The format is functional.
Test [11] relates to Vibrio harveyi. The test is described as follows: Antibacterial activity against Vibrio harveyi BB120 assessed as inhibition of bacterial growth at 1 to 1024 ug/ml measured at 24 hrs by broth microdilution assay. The format is functional, organism-based. The conditions noted are these: dose 1-1024 µg/ml.
For test [12], the system named is Vibrio harveyi. The test is described as follows: Antibacterial activity against Vibrio harveyi BB120 assessed as inhibition of bacterial growth upto 250 uM measured at 24 hrs by broth microdilution assay. The format is functional, organism-based.
Test [13] relates to HaCaT. The experiment in a line: Anti-ferroptotic activity against Erastin-induced ferroptosis in human HaCaT cells assessed as cell viability at 5 uM preincubated with compound for 4 hrs followed by […] administration and measured after 24 hrs by MTT assay relative to control. The format is functional. The conditions noted are these: time 28 hrs.

≈ marks a conversion by molar mass, not a printed value. Calls of active or inactive are those of the source. The calls are words filed in the database; no cut-off is given here.

In the case of `CC(=O)N/N=C/c1ccc2c(c1O)C=CC(C)(C)O2`, the inhibition result in [1] is “inactive”. For the same compound, the result with HaCaT [2] and in the test on DNA [5] was Active. The MIC in the test on Vibrio harveyi [3] was found to be 40 µM (≈ 10.4 µg/mL). For the same compound, the result with DNA [4] was inactive.

Turning to `CC1(C)C=Cc2c(ccc(/C=N/NC(=O)c3ccc(O)cc3O)c2O)O1`, the Activity in the test with HaCaT [6] is 34%; in the test with Calf thymus DNA [8], “Dose-Dependent Effect”. Besides, the Kapp in the test with Calf thymus DNA [7] is 5.73 10^3/M. Also, the inhibition entry in [1] was “inactive”. Also, the MIC in the test on Vibrio harveyi [3] amounted to 10 µM (≈ 3.54 µg/mL); with Staphylococcus aureus [9], 64 µg/mL (≈ 181 µM). Besides, the outcome in the test on DNA [4] and in the test with Escherichia coli was inactive. In addition, in the test with DNA [5], the outcome was Active. The “inhibition zone (IZ)” value with Staphylococcus aureus [10] came to 11 mm.

In the case of `Cc1ccc(C(=O)N/N=C/c2ccc3c(c2O)C=CC(C)(C)O3)cc1`, the Activity in the test with HaCaT [6] was 44%. Also, in test [1], the inhibition entry was “inactive”. The MIC in the test on Vibrio harveyi [3] was greater than 250 µM. In the test with DNA [4], the outcome was inactive. In addition, in the test on DNA [5], the result was Active.

In the case of `CC1(C)C=Cc2c(ccc(/C=N/NC(=O)c3cccnc3)c2O)O1`, the Activity in the test with HaCaT [6] was 34%. For the same compound, the inhibition result in test [1] was “inactive”. The MIC in the test with Vibrio harveyi [3] is 10 µM (≈ 3.23 µg/mL). For the same compound, the result in the test with DNA [4] was inactive. Besides, the outcome with DNA [5] was Active.

Consider `CC1(C)C=Cc2c(ccc(/C=N/NC(=O)c3ccc(C(C)(C)C)cc3)c2O)O1`, for which the Activity with HaCaT [6] stood at 44%. Further, the inhibition entry in test [1] was “inactive”. Moreover, the outcome in the test on DNA [4] and in the test on Vibrio harveyi [11] was inactive. Further, the outcome with DNA [5] was Active.

Turning to `Cc1ccc(S(=O)(=O)N/N=C/c2ccc3c(c2O)C=CC(C)(C)O3)cc1`, in [1], the IC50 was greater than 250 µM. Moreover, the outcome in the test with HaCaT [2], in the test on DNA [4] and with Vibrio harveyi [12] was inactive. Moreover, the outcome in the test with DNA [5] was Active.

`CC1(C)C=Cc2c(ccc(/C=N/NC(=O)c3ccc(O)cc3)c2O)O1`: the Activity with HaCaT [6] turned out to be 44%. The inhibition entry in [1] was “inactive”. Besides, the MIC with Vibrio harveyi [3] stood at 3.9 µM (≈ 1.32 µg/mL). The result with DNA [4] was inactive. Besides, the result with DNA [5] was Active.

`CC1(C)C=Cc2c(ccc(/C=N/NC(=O)c3ccc(Cl)cc3)c2O)O1`: the Activity in the test on HaCaT [6] was 44%. Moreover, the inhibition result in test [1] is “inactive”. Besides, in the test on Vibrio harveyi [3], the MIC was greater than 250 µM. Besides, the outcome in the test on DNA [4] was inactive. Moreover, the outcome in the test on DNA [5] was Active.

In the case of `CC1(C)C=Cc2c(ccc(/C=N/NC(=O)c3ccc([N+](=O)[O-])cc3)c2O)O1`, in the test on HaCaT [6], the Activity was determined as 34%. In addition, the inhibition result in test [1] is “inactive”. The result with DNA [4] and in the test with Vibrio harveyi [11] was inactive. Further, the result in the test with DNA [5] was Active.

Consider `CC1(C)C=Cc2c(ccc(/C=N/NC(=O)c3ccccn3)c2O)O1`, for which the Activity in the test on HaCaT [6] amounted to 34%. In addition, the inhibition entry in test [1] was “inactive”. Besides, the outcome with DNA [4] and in the test with Vibrio harveyi [11] was inactive. Besides, in the test with DNA [5], the result was Active.

For the compound `CC1(C)C=Cc2c(ccc(/C=N/NC(=O)c3ccccc3)c2O)O1`, in the test on HaCaT [6], the Activity is 44%. For the same compound, in test [1], the inhibition result was “inactive”. Further, in the test on Vibrio harveyi [3], the MIC worked out at 7.8 µM (≈ 2.51 µg/mL). Also, the result in the test with DNA [4] was inactive. Also, in the test with DNA [5], the outcome was Active.

With `O=c1c(O)c(-c2ccc(O)c(O)c2)oc2cc(O)ccc12` [FISETIN], the Activity with HaCaT [6] is 42%.

With `CC1(C)C=Cc2c(ccc(/C=N/NS(=O)(=O)c3ccc(C(F)(F)F)cc3)c2O)O1`, the Kapp with Calf thymus DNA [7] was 6.02 10^3/M. Moreover, the IC50 in test [1] is greater than 250 µM. Moreover, the result in the test on HaCaT [2], with DNA [4] and with Vibrio harveyi [12] was inactive. In the test on Calf thymus DNA [8], the Activity result is “Dose-Dependent Effect”. Moreover, the result in the test on DNA [5] was Active.

For `CC1(C)C=Cc2c(ccc(/C=N/NC(=O)c3ccncc3)c2O)O1`, the Activity in the test with HaCaT [6] came out at 34%. In addition, the inhibition result in test [1] was “inactive”. Moreover, the MIC with Vibrio harveyi [3] was 15.6 µM (≈ 5.04 µg/mL). Moreover, the outcome in the test with DNA [4] was inactive. Also, the result with DNA [5] was Active.

Consider `CC1(C)C=Cc2c(ccc(/C=N/NC(N)=O)c2O)O1`, for which, in the test with Calf thymus DNA [7], the Kapp was 9.55 10^3/M. Further, in test [1], the IC50 is 27 µM. Also, the figures for the Activity in the test with HaCaT [13] and in the test with Calf thymus DNA [8] were 18% and “Dose-Dependent Effect”, respectively. Further, the result with DNA [4] and with Vibrio harveyi [12] was inactive. In addition, the outcome with DNA [5] was Active.

Regarding `CC1(C)C=Cc2c(ccc(/C=N/NC(=O)c3ccc(Br)cc3)c2O)O1`, the Activity in the test with HaCaT [6] was 44%. For the same compound, the inhibition result in test [1] is “inactive”. For the same compound, the outcome in the test with DNA [4] and in the test on Vibrio harveyi [11] was inactive. Moreover, the outcome in the test with DNA [5] was Active.

For the compound `Cc1cc(C(=O)N/N=C/c2ccc3c(c2O)C=CC(C)(C)O3)ccc1[N+](=O)[O-]`, in the test on HaCaT [6], the Activity is given as 34%. The inhibition entry in test [1] was “inactive”. Moreover, the MIC in the test with Vibrio harveyi [3] was found to be 62.5 µM (≈ 23.8 µg/mL). Moreover, the result in the test with DNA [4] was inactive. The result in the test with DNA [5] was Active.

As for `COc1ccc(C(=O)N/N=C/c2ccc3c(c2O)C=CC(C)(C)O3)cc1`, in the test with HaCaT [6], the Activity worked out at 44%. Besides, the inhibition result in test [1] was “inactive”. Moreover, the outcome in the test with DNA [4] and in the test with Vibrio harveyi [11] was inactive. The outcome in the test on DNA [5] was Active.

As to `CC1(C)C=Cc2c(ccc(/C=N/NS(=O)(=O)c3ccccc3)c2O)O1`, the IC50 in test [1] amounted to 22 µM. Moreover, the result in the test with DNA [4] and in the test on Vibrio harveyi [12] was inactive. In the test with DNA [5], the result was Active.

For `CC1(C)C=Cc2c(ccc(/C=N/NC(N)=S)c2O)O1`, in the test on HaCaT [6], the Activity was determined as 54%. Further, the inhibition entry in [1] is “inactive”. The MIC with Vibrio harveyi [3] turned out to be 125 µM (≈ 34.7 µg/mL). Further, the result in the test with DNA [4] was inactive. Besides, the result in the test on DNA [5] was Active.
